Assay results published in patent publication US20220315532A1, “METHODS FOR PREPARING CDK4/6 INHIBITOR AND SALT AND INTERMEDIATE THEREOF” (Gan & Lee Pharmaceuticals Co., Ltd., priority 2019, published 2022).

Assays:
Format in all cases: physicochemical
solubility in water = conditions: compared with the free base
[1] = solubility in simulated intestinal fluid (FaSSIF, FeSSIF); conditions: compared with the free base
[2] = hygroscopicity and crystalline form after moisture absorption
[3] = physical and chemical stability under high humidity and illumination; conditions: compared with free base

CC1=Nc2c(F)cc(-c3nc(Nc4ccc(C5CCN(C)CC5)cn4)ncc3F)cc2C12CCCC2.O=C(O)/C=C/C(=O)O [fumarate, fumarate of 5-fluoro-4-(7′-fluoro-2′-methylspiro[cyclopentane-1,3′-indol]-5′-yl)-N-(5-(1-methylpiperidin-4-yl)pyridin-2-yl)pyrimidin-2-amine]
solubility in water (solubility in water): higher solubility | solubility in fasted state simulated intestinal fluid (FaSSIF) [1]: higher solubility | crystalline form stability ([2]; after moisture absorption): stable in crystalline form | hygroscopicity ([2]; compared with the free base): low hygroscopicity comparable to the free base | physical and chemical stability [3]: better physical and chemical stability
